Patent publication US7186695B2 (priority 2001, dated 2007)

Experiments:
Human bone marrow cells = experiment: 12 day bone marrow culture assay, granulocyte/macrophage colonies; type: cell-based; conditions: 12 days
Method: FIG. 20. Effect of GSAO on Proliferation of bone marrow progenitor cells. Human bone marrow cells were incubated in semi-solid agar containing 20% BCS, […] and 0 to 100 μM GSAA or GSAO for 12 days. Granulocyte/macrophage colonies of 40 or more cells were counted under an inverted microscope. The data points and errors represent the mean and SE of quadruplicate cultures.
GSAO reduced the number of granulocyte/macrophage colonies in a 12 day human bone marrow culture assay with an IC50 of ˜30 μM (FIG. 20). […] Human bone marrow cells (˜5×10^5 cells per mL) were added to semi-solid agar in DMEM containing 20% BCS, 5 ng per mL IL-3 and 0 to 100 μM GSM or GSAO. The cultures were incubated for 12 days at 37° C. and 5% CO2 and clusters of 40 or more cells were counted under an inverted microscope according to Metcalf (1977).

HDMVE cells = experiment: Endothelial cell tube formation in Matrigel; type: cell-based, human; conditions: 18 hours; for effect on tube formation: 0.1, 1 or 100 μM
Method: FIG. 21. GSAO perturbs endothelial cell tube formation in Matrigel. Matrigel (100 μl) was added to wells of 96 well plates and allowed to gel for 60 minutes at 37° C. HDMVE cells (10,000 cells per well) in complete media containing 0.1, 1 or 100 μM GSAA or GSAO were seeded onto the Matrigel and the plates were incubated in 5% CO2, 37° C. The phase contrast micrographs were taken after 18 hours incubation.
Endothelial cells arrange into tube-like structures when seeded onto three-dimensional matrices such as the extracellular matrix preparation, Matrigel, or collagen. The tubes can be considered to represent immature blood vessels. Matrigel (100 μl, Becton Dickinson, Bedford, Mass.) was added to wells of 96 well plates (Gibco BRL, Gaithersburg, Md.) and allowed to gel for 60 minutes at 37° C. Human dermal microvascular endothelial (HDMVE) cells were harvested and cultured as described by Stathakis et al. (1997). HDMVE cells (8,000 cells per well) in 150 μl of M199 (Gibco BRL, Gaithersburg, Md.) media containing 30% pooled human serum, 50 μg per mL Heparin (Sigma, St. Louis, Mo.), 100 μg per mL Endothelial Cell Growth Supplement (Gibco BRL, Gaithersburg, Md.) and 0.1, 1 or 100 μM GSM or GSAO were seeded onto the Matrigel and the plates were incubated for 18 hours in 5% CO2, 37° C. Phase contrast micrographs of the wells were collected.

BAE cells = experiment: cells; conditions: Bos taurus, Endothelial cell, 24 h, read-out: IC50 for viability
Thioredoxin = biological target: T1, Thioredoxin (Homo sapiens, UniProt P10599); experiment: Inhibition of thioredoxin-mediated reduction of 70 kDa fibronectin fragment; type: biochemical; conditions: 1 μM thioredoxin, 10 minutes
T1 construct: purchased American Diagnostica, Greenwich, Conn; host or cells: E. coli
T1 sequence (P10599 1-105): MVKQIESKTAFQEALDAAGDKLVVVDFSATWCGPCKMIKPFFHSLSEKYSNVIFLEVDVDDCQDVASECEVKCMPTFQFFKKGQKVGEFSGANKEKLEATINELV
Method: FIG. 13. Inhibition of thioredoxin by GSAO. Thioredoxin (1 μM) was incubated with GSAO (0, 1 or 10 μM) for 10 minutes at room temperature in 20 mM Hepes, 0.14 M NaCl, pH 7.4 buffer. The 70 kDa fibronectin fragment (10 μg per mL) was added and incubated for 5 minutes at room temperature. The reactions were labelled with MPB (100 μM) for 10 minutes at 37° C. The MPB was quenched with GSH (200 μM) for 10 minutes at 37° C. followed by Iodoacetamide (400 μM) for 10 minutes at room temperature. The MPB-labelled 70 kDa fragment was resolved on 5–15% SDS-PAGE, transferred to PVDF membrane and the MPB detected by blotting with streptavidin peroxidase. The positions of Mr markers are shown at left.
It was observed that thioredoxin reduced one or more protein disulfide bonds in the 70 kDa N-terminal fragment of fibronectin.

Question: What does the source list for `N[C@@H](CCC(=O)N[C@@H](CSCC(=O)Nc1ccc([As](=O)(O)O)cc1)C(=O)NCC(=O)O)C(=O)O` [GSAA, 4-(N-(S-glutathionylacetyl)amino)phenylarsonic acid, reference compound]?
Answer: effect on colony numbers (Human bone marrow cells; up to a concentration of 100 μM): no effect; effect on tube formation (HDMVE cells): no apparent effect

Question: Which results are given for `NC(CCC(=O)NC(CSCC(=O)Nc1ccc([As]=O)cc1)C(=O)NCC(=O)O)C(=O)O` (stereo not drawn) [GSAO, 4-(N-(S-glutathionylacetyl)amino)-phenylarsenoxide]?
Answer: IC50 (Human bone marrow cells; Homo sapiens, Bone marrow cell, 288 h, semi-solid agar, 20% BCS, IL-3, read-out: IC50 for reduction of the number of granulocyte/macrophage colonies): ~30 µM; effect on tube formation (HDMVE cells): perturbed tube formation; concentration at which effects on tube formation were apparent (HDMVE cells): 0.1 µM; concentration at which effects on tube formation were marked (HDMVE cells): 100 µM; IC50 (BAE cells): ~100 µM; inhibition at 1 µM (Thioredoxin; 1 μM GSAO): ~50%; inhibition of thioredoxin activity (Thioredoxin; 10 μM GSAO): completely inhibited
